Data as given in patent US20240368122A1, “JAK2 INHIBITORS AND METHODS OF USE THEREOF” (RELAY THERAPEUTICS, INC., priority 2021, published 2024).
Read-outs that look alike come from different tables or passages of the source.

Experiments:
[1] = test system: TF1 JAK2 V617F STAT5 reporter; experiment: Cellular TF1 STAT5 assay (luciferase reporter), JAK2 V617F; type: cell-based; conditions: read-out: Cell PD TF1 V617F STAT5 (IC50)
Procedure: (§1) Selected compounds of the present disclosure were tested in a Cellular TF1 STAT3 or STAT5 assay, to measure the degree of JAK2-mediated STAT3 or STAT5 phosphorylation, respectively. TF1 cells (immortalized erythroleukemia line) expressing either wildtype or V617F mutant JAK2 with a luciferase reporter were used.
(§2) Cell culture: Cells were put into antibiotic selection (1 ug/ml puro+500 ug/ml Geneticin) when first thawed then maintained in growth media without antibiotics. Cells were maintained in exponential growth phase, between 0.02-1 E6 cells/ml.
(§3) Compound preparation: Compounds were screened as 10-point dose response curves 1:3 dilutions. DMSO is used as the vehicle control. All wells were normalized to the same final DMSO concentration. Compounds were pre-spotted onto 384 well plates using an Echo acoustic dispenser, 50 nL of 1000× (10 mM top concentration) DMSO stock/well. Each compound is run in triplicate plates.
(§4) Cell plating: Cells were counted using Vi-Cell XR, then cells were spun down and resuspended in growth media to 200,000 cells/ml. Cells were added to plates containing compound. 10,000 cells/well in 50 ul volume using a Biomek liquid handler. Plates were briefly mixed on a shaker for 1 minute at 2500 rpm then placed in a 37° C., 5% CO2 incubator overnight for 18-20 hrs.
(§5) Measuring luciferase activity: ONE-glo reagent was brought to room temperature, and 25 μL of ONE-glo assay reagent was added to each well using Biomek liquid handler. The plates were incubated for 10 minutes at room temperature, then luminescence was measured on an Envision plate reader.

[2] = target: T1, JAK2 JH2 WT (V536-D812) [W659A, W777A, F794H solubilizing mutations] (Homo sapiens, UniProt O60674, F794H/W659A/W777A); experiment: Surface Plasmon Resonance (SPR) binding assay, JAK2 JH2 domain
T1 construct: **JAK2 JH2 WT (V536-D812) [W659A, W777A, F794H solubilizing mutations]; C-thrombin-avi-His6; thrombin cleavage site (C); His6 (C); purchased Biortus
Procedure: Selected compounds of the present disclosure were tested in a Surface Plasmon Resonance (SPR) Assay to measure their binding kinetics and affinity for proteins of interest.
Prepare buffer: 50 mM HEPES pH 7.5, 150 mM NaCl, 0.05% (v/v) Tween, and 10% (v/v) glycerol were combined and pH was adjusted to 7.5, then filtered. 5 mM DTT, was added, and buffer without DMSO was reserved for compound resuspension. 2% (v/v) DMSO was added for assay buffer, and separately 1% DMSO was used to make buffer for resuspending compounds.
Prepare compounds: Using a Bravo liquid handler, 99 μL of 1% (v/v) DMSO assay buffer was added to 1 μL compounds in DMSO.
Run 8K Method: Biotin CAPture (CAP) chip surface was regenerated prior to run by: Inserting CAP chip into Biacore 8K, prime machine with assay buffer with 2% (v/v) DMSO; Setting instrument temperature to 20° C.; Conditioning surface with NaOH/GdnHCl reagents from CAP chip kit (60 seconds, 10 μL/min); and Capturing oligo-Streptavidin (SA) reagent from CAP kit (600 seconds, 1 μL/min), expected capture ˜2500 RU. JAK2 JH1 or JH2 protein was immobilized by preparing a sample of 0.5 uM JH1 or 0.4 uM JH2 protein diluted in assay buffer without DMSO and supplemented with 10 uM of a selected compound of the invention as a stabilizer (370 seconds, 5 uL/min), expected capture ˜1000 RU. Remaining biotin sites on SA were blocked with 1 uM biotin (30 seconds, 20 uL/min), then equilibrated for 1800 seconds at 100 uL/min. Compounds being assayed were run in single cycle kinetics: 4 doses with a top concentration of 5 uM (JH1) or 500 nM (JH2), dilution factor of 3, at 20° C., for a contact time of 60 seconds, and a dissociation time of 300 seconds (JH1) or 1200 seconds (JH2), at a flow rate of 30 uL/min. The surface was completely regenerated after each compound is run, and JH1 or JH2 protein was immobilized fresh prior to each new compound. Data were fitted kinetically with 1:1 binding model using Biacore Insight Evaluation Software.

[3] = test system: TF1 JAK2 V617F STAT3 reporter; experiment: Cellular TF1 STAT3 assay (luciferase reporter), JAK2 V617F; type: cell-based; conditions: read-out: Cell PD-TF1 JAK2 V617F STAT3 (IC50)
Procedure: as §1, §2, §3, §4, §5

[4] = Homo sapiens, TF-1, TF1 cells, JAK2 V617F

T1 sequence (O60674 536-812 W659A/W777A/F794H): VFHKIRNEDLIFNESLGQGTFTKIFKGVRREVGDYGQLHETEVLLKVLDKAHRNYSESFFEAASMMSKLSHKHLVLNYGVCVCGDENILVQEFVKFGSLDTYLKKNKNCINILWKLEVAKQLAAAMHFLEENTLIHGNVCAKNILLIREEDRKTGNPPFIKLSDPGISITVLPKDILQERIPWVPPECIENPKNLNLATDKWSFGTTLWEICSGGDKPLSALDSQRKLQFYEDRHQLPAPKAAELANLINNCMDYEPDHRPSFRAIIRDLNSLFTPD

| SMILES | IC50 [1, 4] [nM] | Kd [2] [nM] | IC50 [3, 4] [nM] | IC50 ([1]; TF1 JAK2 V617F) [nM] | Kd ([2]; SPR, JAK2 JH2 domain) [nM] | IC50 ([3]; TF1 JAK2 V617F) [nM] |
| --- | --- | --- | --- | --- | --- | --- |
| CNC(=O)c1nnc(NC(=O)C2CC2)cc1Nc1cccc(-c2ccc(C3CN(Cc4cnccc4C(F)F)C3)nc2)c1OC [Compound 291] | 500 to 5000 | 10 to 50 | 5000 to 100000 | – | – | – |
| CNC(=O)c1nnc(NC(=O)C2CC2)cc1Nc1ccc(C)c(-c2ccc(C(=O)N(C)Cc3cc(C(F)F)ccn3)nc2)c1OC [Compound 296] | 50 to 500 | 0.01 to 10 | 50 to 500 | – | – | – |
| CNC(=O)c1nnc(NC(=O)C2CC2)cc1Nc1cccc(-c2cn(C3CN(Cc4cccc(C#N)n4)[C@@H]3C)nn2)c1OC (stereo in doubt) [Compound 237] | 500 to 5000 | 0.01 to 10 | 500 to 5000 | – | – | – |
| CNC(=O)c1nnc(NC(=O)C2CC2)cc1Nc1cccc(-c2cnn([C@@H]3CN(Cc4cccc(C#N)n4)[C@H]3C)c2)c1OC [Compound 310] | 500 to 5000 | 0.01 to 10 | 500 to 5000 | – | – | – |
| CNC(=O)c1nnc(NC(=O)C2CC2)cc1Nc1cccc(-c2ccc(C3CN(Cc4ccccn4)C3)c(OC)c2)c1OC [Compound 359] | 500 to 5000 | 50 to 500 | 5000 to 100000 | – | – | – |
| CNC(=O)c1nnc(NC(=O)C2CC2)cc1Nc1cccc(-c2ncn(C3CN(Cc4ccccn4)C3)n2)c1OC [Compound 224] | 5000 to 100000 | 0.01 to 10 | 5000 to 100000 | – | – | – |
| CNC(=O)c1nnc(NC(=O)C2CC2)cc1Nc1cccc(-c2cnn(C3CN(Cc4cccc([N+](=O)[O-])n4)C3)c2)c1OC [Compound 294] | 50 to 500 | 0.01 to 10 | 50 to 500 | – | – | – |
| CNC(=O)c1nnc(NC(=O)C2CC2)cc1Nc1cccc(-c2cnn(C3CN(Cc4cc(Cl)ccn4)C3)c2)c1OC [Compound 250] | 50 to 500 | 0.01 to 10 | 50 to 500 | – | – | – |
| CNC(=O)c1nnc(NC(=O)C2CC2)cc1Nc1cccc(-c2ccc(C(=O)N(C)C[C@H]3CCCC3(F)F)nc2)c1OC (single isomer, unassigned) [Compound 226] | 5000 to 100000 | 10 to 50 | 5000 to 100000 | – | – | – |
| CNC(=O)c1nnc(NC(=O)C2CC2)cc1Nc1cccc(-c2ccc(C(=O)N(C)Cc3cn(C)cn3)nc2)c1OC [Compound 86] | – | – | – | 500 to 5000 | 0.01 to 10 | 500 to 5000 |
| CNC(=O)c1nnc(NC(=O)C2CC2)cc1Nc1cccc(-c2ccc(C(=O)N(C)Cc3cn4c(n3)CCCC4)nc2)c1OC [Compound 84] | – | – | – | 5000 to 100000 | 10 to 50 | 500 to 5000 |
| CNC(=O)c1nnc(NC(=O)C2CC2)cc1Nc1cccc(-c2cnn(C3CN(Cc4cccc(NC(C)=O)n4)C3)c2)c1OC [Compound 260] | 50 to 500 | 0.01 to 10 | 50 to 500 | – | – | – |
| CNC(=O)c1nnc(NC(=O)C2CC2)cc1Nc1cccc(-c2ccc(C(=O)N(C)Cc3ccon3)nc2)c1OC [Compound 99] | – | – | – | 5000 to 100000 | 0.01 to 10 | 500 to 5000 |
| CNC(=O)c1nnc(NC(=O)C2CC2)cc1Nc1cccc(-c2cnn(C3CN(Cc4ncccc4C(=O)N(C)C)C3)c2)c1OC [Compound 299] | 500 to 5000 | 0.01 to 10 | 500 to 5000 | – | – | – |
| CNC(=O)c1nnc(NC(=O)C2CC2)cc1Nc1cccc(C(=O)N[C@H](C)C2CN(Cc3ccccn3)C2)c1OC (single isomer, unassigned) [Compound 246] | 5000 to 100000 | 50 to 500 | 5000 to 100000 | – | – | – |
| CNC(=O)c1nnc(NC(=O)C2CC2)cc1Nc1cccc(-c2ccc(C(=O)N(C)Cc3cn(C)nc3C)nc2)c1OC [Compound 101] | – | – | – | 50 to 500 | 0.01 to 10 | 50 to 500 |
| CNC(=O)c1nnc(NC(=O)C2CC2)cc1Nc1cccc(-c2cc(C3CN(Cc4cnn(C)c4)C3)n(C)n2)c1OC [Compound 187] | – | – | – | 5000 to 100000 | 50 to 500 | 5000 to 100000 |

| SMILES | IC50 [1, 4] [nM] | Kd [2] [nM] | IC50 [3, 4] [nM] | IC50 ([1]; TF1 JAK2 V617F) [nM] | Kd ([2]; SPR, JAK2 JH2 domain) [nM] | IC50 ([3]; TF1 JAK2 V617F) [nM] |
| --- | --- | --- | --- | --- | --- | --- |
| COc1c(Nc2cc(NC(=O)C3CC3)nn3cc(C)nc23)cccc1-c1ccc(C(=O)N(C)Cc2cc(C#N)ccn2)nc1 [Compound 219] | 500 to 5000 | 0.01 to 10 | 500 to 5000 | – | – | – |
| CNC(=O)c1nnc(NC(=O)C2CC2)cc1Nc1cccc(-c2cn(C3CN(C(C)C)C3)nc2CO)c1OC [Compound 335] | 5000 to 100000 | 50 to 500 | 5000 to 100000 | – | – | – |
| CNC(=O)c1nnc(NC(=O)C2CC2)cc1Nc1cccc(-c2ccn(C3CN(Cc4cccc(C(F)F)n4)C3)n2)c1OC [Compound 331] | 500 to 5000 | 0.01 to 10 | 500 to 5000 | – | – | – |
| COc1c(Nc2cc(NC(=O)C3CC3)nn3cc(C)nc23)cccc1-c1cnn(C2CN(Cc3ccccn3)C2)c1 [Compound 204] | 500 to 5000 | 0.01 to 10 | 500 to 5000 | – | – | – |
| CNC(=O)c1nnc(NC(=O)C2CC2)cc1Nc1cccc(-c2cnn(C3CN(Cc4cccc(NS(C)(=O)=O)n4)C3)c2)c1OC [Compound 273] | 500 to 5000 | 0.01 to 10 | 500 to 5000 | – | – | – |
| CNC(=O)c1nnc(NC(=O)C2CC2)cc1Nc1ccc(C)c(-c2ccc(C3CN(Cc4cccc(C#N)n4)C3)nc2)c1OC [Compound 320] | 500 to 5000 | 0.01 to 10 | 500 to 5000 | – | – | – |
| CNC(=O)c1nnc(NC(=O)C2CC2)cc1Nc1ccc(C)c(-c2ccc(C(=O)N(C)Cc3nccs3)nc2)c1OC [Compound 180] | – | – | – | 500 to 5000 | 0.01 to 10 | 500 to 5000 |
| CNC(=O)c1nnc(NC(=O)C2CC2)cc1Nc1cccc(-c2cnn(C3CN(Cc4csnn4)C3)c2)c1OC [Compound 173] | – | – | – | 50 to 500 | 0.01 to 10 | 50 to 500 |
| COc1c(Nc2cc(NC(=O)C3CC3)nnc2-c2ncc[nH]2)cccc1-c1ccc(C(=O)N(C)Cc2cn(C)nc2C)nc1 [Compound 363] | 50 to 500 | 0.01 to 10 | 500 to 5000 | – | – | – |
| CNC(=O)c1nnc(NC(=O)C2CC2)cc1Nc1cccc(-c2cn(C3CN(Cc4cccc(C(F)F)n4)C3)cn2)c1OC [Compound 341] | 50 to 500 | 0.01 to 10 | 50 to 500 | – | – | – |
| CNC(=O)c1nnc(NC(=O)C2CC2)cc1Nc1cccc(-c2ccc(C(=O)N(C)Cc3cnn(C4CC4)c3C)nc2)c1OC [Compound 284] | 500 to 5000 | 0.01 to 10 | 500 to 5000 | – | – | – |
| CNC(=O)c1nnc(NC(=O)C2CC2)cc1Nc1cccc(-c2ccc(C3CN(Cc4cccc(C(F)(F)F)n4)C3)nc2)c1OC [Compound 391] | 500 to 5000 | 10 to 50 | 5000 to 100000 | – | – | – |
| CNC(=O)c1nnc(NC(=O)C2CC2)cc1Nc1cccc(-c2ccc(C(=O)N(C)Cc3cccn(C)c3=O)nc2OC)c1OC [Compound 25] | – | – | – | 500 to 5000 | 0.01 to 10 | 500 to 5000 |
| CNC(=O)c1nnc(NC(=O)C2CC2)cc1Nc1cccc(-c2ccc(C(=O)N(C)Cc3cncs3)nc2)c1OC [Compound 60] | – | – | – | 5000 to 100000 | 10 to 50 | 500 to 5000 |
| CNC(=O)c1nnc(NC(=O)C2CC2)cc1Nc1cccc(-c2ccc(C(=O)N(C)Cc3ncc(CN(C)C)s3)nc2)c1OC [Compound 271] | 500 to 5000 | 0.01 to 10 | 500 to 5000 | – | – | – |
| CNC(=O)c1nnc(NC(=O)C2CC2)cc1Nc1cccc(-c2cnn([C@@H]3CCN(Cc4ccccn4)C3)c2)c1OC (single isomer, unassigned) [Compound 334] | 500 to 5000 | 0.01 to 10 | 500 to 5000 | – | – | – |
